Experimental data from patent US20240217977A1, “DIAZEPANONE-FUSED PYRIMIDINE COMPOUNDS, COMPOSITIONS AND MEDICINAL APPLICATIONS THEREOF” (Blueprint Medicines Corporation, priority 2021, published 2024).
pIC50: −log10 of the molar value.

How the values were obtained:
Format in all cases: cell-based
[1] = system: A431 cells; experiment: Cellular proliferation (Alamar Blue) assay, A431 cells; details: Homo sapiens, A-431, 72 hr incubation
Experimental: (§1) Example 2: Cellular Proliferation (Alamar Blue) Assays
(§2) • 1. EGFR(D770_N771insSVD) expressing Ba/F3 stable cell line • 2. EGFR (A767_dupASV) expressing Ba/F3 stable cell line • 3. A431 cells • 4. EGFR (H773insNPH) expressing Ba/F3 stable cell line • 5. HER2 (A775_G775insYVMA) expressing Ba/F3 stable cell line
(§3) • 1. Seed cells at 5000 for A431 and 15,000 cells for Ba/F3 in 100 μL/well in complete media (for A431: DMEM with 10% FBS and for Ba/F3 cells: RPMI with 10% FBS) in • 96-well tissue culture plate. Leave outer wells without cells for background measurements. Incubate at 37 degree Celsius in 5% C02 humidified incubator for 16-18 hours. • 2. Add 0.025 ml of 5× concentration compound dilution or DMSO control. Final compound concentration range is 10-0.0005 μM prepared in 3-fold serial dilutions. Incubate for 72 hr at 37 degree Celsius in 5% CO2 humidified incubator. • 3. Add 0.0125 ml Alamar Blue™ reagent to each well with multi-channel pipette and tap gently on each side of the plate to mix. Incubate for 3 hours at 37 degree Celsius in 5% CO2 humidified incubator. • 4. Read plates on fluorescence reader (Tecan Spark Control, Device: Spark, Serial #: 1801006040) at 540 nm excitation, 590 nm emission wavelength. • 5. Data analysis was performed using XLfit 5.5.0.5.

[2] = target: EGFR (A767_dupASV) expressing Ba/F3 stable cell line (Homo sapiens, UniProt P00533, DUP767-769, cells depend on it); experiment: Cellular proliferation (Alamar Blue) assay, EGFR (A767_dupASV) Ba/F3; details: 72 hr incubation, read-out: A767 IC50
EGFR (A767_dupASV) expressing Ba/F3 stable cell line, sequence (P00533 with tags, fused parts or gaps DUP767-769): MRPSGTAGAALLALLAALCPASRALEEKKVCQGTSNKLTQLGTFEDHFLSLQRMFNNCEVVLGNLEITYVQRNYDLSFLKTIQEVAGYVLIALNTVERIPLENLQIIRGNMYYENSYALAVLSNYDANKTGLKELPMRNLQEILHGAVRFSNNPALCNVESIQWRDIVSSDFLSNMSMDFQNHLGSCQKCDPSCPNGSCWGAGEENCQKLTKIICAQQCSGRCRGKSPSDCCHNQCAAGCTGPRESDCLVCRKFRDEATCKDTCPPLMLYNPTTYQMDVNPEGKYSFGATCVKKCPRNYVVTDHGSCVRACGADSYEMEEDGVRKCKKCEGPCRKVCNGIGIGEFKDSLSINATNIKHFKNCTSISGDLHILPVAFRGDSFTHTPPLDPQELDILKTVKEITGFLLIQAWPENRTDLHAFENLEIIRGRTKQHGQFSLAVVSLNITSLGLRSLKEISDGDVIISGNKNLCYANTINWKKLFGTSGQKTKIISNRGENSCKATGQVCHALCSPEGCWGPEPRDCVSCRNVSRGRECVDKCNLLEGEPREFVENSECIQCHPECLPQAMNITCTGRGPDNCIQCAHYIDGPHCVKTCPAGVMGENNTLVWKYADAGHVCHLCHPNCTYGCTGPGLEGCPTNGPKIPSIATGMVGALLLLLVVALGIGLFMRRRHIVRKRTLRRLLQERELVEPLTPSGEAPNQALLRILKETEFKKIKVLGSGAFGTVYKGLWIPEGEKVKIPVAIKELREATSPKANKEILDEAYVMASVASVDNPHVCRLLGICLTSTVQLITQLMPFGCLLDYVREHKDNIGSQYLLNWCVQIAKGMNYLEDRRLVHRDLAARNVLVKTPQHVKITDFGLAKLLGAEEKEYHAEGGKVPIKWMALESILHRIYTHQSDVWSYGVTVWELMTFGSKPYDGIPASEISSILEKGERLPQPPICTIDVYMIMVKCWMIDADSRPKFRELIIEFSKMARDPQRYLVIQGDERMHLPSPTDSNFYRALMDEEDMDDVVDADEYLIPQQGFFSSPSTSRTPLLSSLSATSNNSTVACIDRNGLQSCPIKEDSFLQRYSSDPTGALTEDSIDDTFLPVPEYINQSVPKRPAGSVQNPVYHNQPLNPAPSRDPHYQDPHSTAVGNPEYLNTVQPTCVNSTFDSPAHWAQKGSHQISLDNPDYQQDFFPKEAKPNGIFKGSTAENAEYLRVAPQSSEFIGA
Experimental: as §1, §2, §3

[3] = target: EGFR(D770_N771insSVD) expressing Ba/F3 stable cell line (Homo sapiens, UniProt P00533, DUP768-770, cells depend on it); experiment: Cellular proliferation (Alamar Blue) assay, EGFR(D770_N771insSVD) Ba/F3; details: 72 hr incubation, read-out: D770 IC50
EGFR(D770_N771insSVD) expressing Ba/F3 stable cell line, sequence (P00533 with tags, fused parts or gaps DUP768-770): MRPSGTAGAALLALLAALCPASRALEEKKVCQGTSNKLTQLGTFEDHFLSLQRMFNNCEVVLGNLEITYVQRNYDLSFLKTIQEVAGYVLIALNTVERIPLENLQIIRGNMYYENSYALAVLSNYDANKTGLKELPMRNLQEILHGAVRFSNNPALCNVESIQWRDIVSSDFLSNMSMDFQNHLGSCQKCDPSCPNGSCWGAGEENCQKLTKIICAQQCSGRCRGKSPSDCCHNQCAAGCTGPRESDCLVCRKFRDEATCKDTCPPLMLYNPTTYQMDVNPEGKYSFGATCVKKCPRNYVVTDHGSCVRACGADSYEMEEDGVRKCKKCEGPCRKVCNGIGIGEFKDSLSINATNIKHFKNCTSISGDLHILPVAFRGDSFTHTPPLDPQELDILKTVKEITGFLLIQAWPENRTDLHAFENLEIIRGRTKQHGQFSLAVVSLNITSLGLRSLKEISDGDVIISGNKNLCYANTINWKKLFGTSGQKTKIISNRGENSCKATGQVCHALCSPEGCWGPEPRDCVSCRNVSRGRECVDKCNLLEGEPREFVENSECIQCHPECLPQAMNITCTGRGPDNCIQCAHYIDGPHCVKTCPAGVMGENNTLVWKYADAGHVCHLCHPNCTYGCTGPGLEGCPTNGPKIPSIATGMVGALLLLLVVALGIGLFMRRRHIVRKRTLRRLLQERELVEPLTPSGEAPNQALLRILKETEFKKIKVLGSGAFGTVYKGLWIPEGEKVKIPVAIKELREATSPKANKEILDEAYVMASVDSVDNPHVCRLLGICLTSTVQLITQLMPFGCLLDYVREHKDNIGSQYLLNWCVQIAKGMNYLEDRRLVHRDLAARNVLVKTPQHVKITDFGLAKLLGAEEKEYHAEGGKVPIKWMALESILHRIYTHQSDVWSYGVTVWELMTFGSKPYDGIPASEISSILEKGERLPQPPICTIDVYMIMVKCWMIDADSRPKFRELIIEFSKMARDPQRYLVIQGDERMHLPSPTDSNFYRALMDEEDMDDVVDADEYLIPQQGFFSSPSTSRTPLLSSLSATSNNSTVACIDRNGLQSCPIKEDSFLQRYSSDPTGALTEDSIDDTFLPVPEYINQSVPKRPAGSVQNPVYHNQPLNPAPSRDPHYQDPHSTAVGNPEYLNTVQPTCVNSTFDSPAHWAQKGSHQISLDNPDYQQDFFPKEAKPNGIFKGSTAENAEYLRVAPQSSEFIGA
Experimental: as §1, §2, §3

[4] = target: EGFR (H773insNPH) expressing Ba/F3 stable cell line (Homo sapiens, UniProt P00533, DUP771-773, cells depend on it); experiment: Cellular proliferation (Alamar Blue) assay, EGFR (H773insNPH) Ba/F3; details: 72 hr incubation, read-out: NPH IC50
EGFR (H773insNPH) expressing Ba/F3 stable cell line, sequence (P00533 with tags, fused parts or gaps DUP771-773): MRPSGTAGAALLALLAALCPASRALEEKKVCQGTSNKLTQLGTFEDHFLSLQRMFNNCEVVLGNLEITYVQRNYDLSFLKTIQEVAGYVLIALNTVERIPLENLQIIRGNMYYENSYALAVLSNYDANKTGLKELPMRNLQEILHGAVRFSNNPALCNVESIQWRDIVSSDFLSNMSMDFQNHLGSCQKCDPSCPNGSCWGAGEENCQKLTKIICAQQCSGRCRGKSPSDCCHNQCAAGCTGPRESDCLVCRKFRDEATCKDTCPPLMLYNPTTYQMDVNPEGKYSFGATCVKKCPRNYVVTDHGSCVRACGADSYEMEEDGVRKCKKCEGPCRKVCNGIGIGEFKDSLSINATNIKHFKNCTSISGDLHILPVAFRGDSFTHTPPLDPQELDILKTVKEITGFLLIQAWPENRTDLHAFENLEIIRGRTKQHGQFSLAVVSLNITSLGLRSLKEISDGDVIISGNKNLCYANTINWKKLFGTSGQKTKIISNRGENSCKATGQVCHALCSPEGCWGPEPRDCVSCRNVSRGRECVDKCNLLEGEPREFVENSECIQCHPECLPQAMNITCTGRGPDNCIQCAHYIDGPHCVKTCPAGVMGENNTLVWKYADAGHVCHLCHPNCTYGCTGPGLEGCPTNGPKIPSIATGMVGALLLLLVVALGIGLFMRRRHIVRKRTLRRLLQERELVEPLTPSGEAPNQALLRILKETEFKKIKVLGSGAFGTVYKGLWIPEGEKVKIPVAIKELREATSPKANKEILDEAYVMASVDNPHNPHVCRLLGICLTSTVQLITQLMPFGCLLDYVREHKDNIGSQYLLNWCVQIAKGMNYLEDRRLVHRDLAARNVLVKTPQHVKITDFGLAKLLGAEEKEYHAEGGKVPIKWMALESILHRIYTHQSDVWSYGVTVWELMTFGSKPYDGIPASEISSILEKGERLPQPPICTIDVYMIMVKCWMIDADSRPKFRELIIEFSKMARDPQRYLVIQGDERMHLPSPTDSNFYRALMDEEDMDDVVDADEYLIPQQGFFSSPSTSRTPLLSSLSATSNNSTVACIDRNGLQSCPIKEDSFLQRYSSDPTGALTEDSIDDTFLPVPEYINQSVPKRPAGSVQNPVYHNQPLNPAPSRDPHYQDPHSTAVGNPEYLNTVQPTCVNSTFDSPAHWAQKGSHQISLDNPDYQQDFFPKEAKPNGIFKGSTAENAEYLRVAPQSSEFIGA
Experimental: as §1, §2, §3

[5] = target: HER2 (A775_G775insYVMA) expressing Ba/F3 stable cell line (Homo sapiens, UniProt P04626, DUP772-775, cells depend on it); experiment: Cellular proliferation (Alamar Blue) assay, HER2 (A775_G775insYVMA) Ba/F3; details: 72 hr incubation, read-out: YVMA IC50
HER2 (A775_G775insYVMA) expressing Ba/F3 stable cell line, sequence (P04626 with tags, fused parts or gaps DUP772-775): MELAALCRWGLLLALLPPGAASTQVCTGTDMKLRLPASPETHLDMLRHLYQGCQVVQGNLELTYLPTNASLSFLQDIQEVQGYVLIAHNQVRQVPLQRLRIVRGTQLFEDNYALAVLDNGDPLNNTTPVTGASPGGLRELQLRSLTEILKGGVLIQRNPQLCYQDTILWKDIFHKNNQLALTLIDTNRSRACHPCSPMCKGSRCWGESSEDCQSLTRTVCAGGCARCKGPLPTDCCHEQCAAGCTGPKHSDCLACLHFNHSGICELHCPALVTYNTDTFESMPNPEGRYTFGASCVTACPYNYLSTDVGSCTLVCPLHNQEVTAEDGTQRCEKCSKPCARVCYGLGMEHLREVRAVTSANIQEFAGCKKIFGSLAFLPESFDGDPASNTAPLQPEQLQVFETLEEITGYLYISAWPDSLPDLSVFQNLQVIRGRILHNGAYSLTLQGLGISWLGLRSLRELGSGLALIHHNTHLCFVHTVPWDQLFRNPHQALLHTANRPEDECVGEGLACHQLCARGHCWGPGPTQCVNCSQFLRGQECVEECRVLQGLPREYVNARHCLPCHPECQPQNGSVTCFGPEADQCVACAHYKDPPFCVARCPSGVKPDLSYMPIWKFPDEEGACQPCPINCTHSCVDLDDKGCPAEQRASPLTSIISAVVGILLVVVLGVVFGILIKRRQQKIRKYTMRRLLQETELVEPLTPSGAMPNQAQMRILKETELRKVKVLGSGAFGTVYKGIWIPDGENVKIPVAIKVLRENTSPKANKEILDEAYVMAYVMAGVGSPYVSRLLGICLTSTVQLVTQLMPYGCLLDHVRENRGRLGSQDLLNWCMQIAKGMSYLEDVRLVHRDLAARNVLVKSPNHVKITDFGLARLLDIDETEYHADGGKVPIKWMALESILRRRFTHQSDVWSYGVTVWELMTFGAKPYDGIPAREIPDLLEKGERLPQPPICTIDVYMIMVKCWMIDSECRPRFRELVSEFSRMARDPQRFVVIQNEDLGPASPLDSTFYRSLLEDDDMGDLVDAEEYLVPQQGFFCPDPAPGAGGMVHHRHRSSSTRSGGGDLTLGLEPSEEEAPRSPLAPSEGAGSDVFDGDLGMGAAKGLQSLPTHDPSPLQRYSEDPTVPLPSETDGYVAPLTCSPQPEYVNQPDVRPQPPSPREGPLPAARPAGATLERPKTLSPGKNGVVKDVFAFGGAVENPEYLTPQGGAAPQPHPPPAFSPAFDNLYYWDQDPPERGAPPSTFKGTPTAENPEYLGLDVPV
Experimental: as §1, §2, §3

Row | SMILES | pIC50 [1] | GI50 [2] | GI50 [3] | GI50 [4] | GI50 [5]
1 | C=CC(=O)Nc1cccc(N2C(=O)N(Cc3ccccc3)CCc3cnc(Nc4ccc(F)nc4)nc32)c1 [Compound 26, N-(3-(7-benzyl-2-((6-fluoropyridin-3-yl)amino)-8-oxo-5,6,7,8-tetrahydro-9H-pyrimido[4,5-d][1,3]diazepin-9-yl)phenyl)acrylamide] | 6.87 | 67 nM | 35 nM | 90 nM | 33 nM
2 | C=CC(=O)Nc1cccc(N2C(=O)N(Cc3ccccc3)CCc3cnc(Nc4ccc(N5CCOCC5)nc4)nc32)c1 [Compound 19, N-(3-(7-benzyl-2-((6-morpholinopyridin-3-yl)amino)-8-oxo-5,6,7,8-tetrahydro-9H-pyrimido[4,5-d][1,3]diazepin-9-yl)phenyl)acrylamide] | < 5.00 | 10 nM | 14 nM | 25 nM | 24 nM
3 | COC/C=C/C(=O)Nc1cccc(N2C(=O)N(Cc3ccccc3)CCc3cnc(Nc4cn(C)nc4Cl)nc32)c1 [Compound 4, (E)-N-(3-(7-benzyl-2-((3-chloro-1-methyl-1H-pyrazol-4-yl)amino)-8-oxo-5,6,7,8-tetrahydro-9H-pyrimido[4,5-d][1,3]diazepin-9-yl)phenyl)-4-methoxybut-2-enamide] | < 5.00 | 104 nM | 98 nM | 103 nM | 125 nM
4 | C=CC(=O)Nc1cccc(N2C(=O)N(c3ccccc3)CCc3cnc(Nc4ccc(N5CCN(C)CC5)c(C)c4)nc32)c1 [Compound 41, N-(3-(2-((3-methyl-4-(4-methylpiperazin-1-yl)phenyl)amino)-8-oxo-7-phenyl-5,6,7,8-tetrahydro-9H-pyrimido[4,5-d][1,3]diazepin-9-yl)phenyl)acrylamide] | 6.99 | 32 nM | 41 nM | 27 nM | 29 nM
5 | C=CC(=O)Nc1cccc(N2C(=O)N(Cc3ccccc3)CCc3cnc(Nc4cn(C5COC5)nc4Cl)nc32)c1 [Compound 28, N-(3-(7-benzyl-2-((3-chloro-1-(oxetan-3-yl)-1H-pyrazol-4-yl)amino)-8-oxo-5,6,7,8-tetrahydro-9H-pyrimido[4,5-d][1,3]diazepin-9-yl)phenyl)acrylamide] | 8.05 | 13 nM | 12 nM | 32 nM | 8 nM
6 | C=CC(=O)Nc1cccc(N2C(=O)N(c3ccc(F)cc3)CCc3cnc(Nc4cn(C)nc4Cl)nc32)c1 [Compound 42, N-(3-(2-((3-chloro-1-methyl-1H-pyrazol-4-yl)amino)-7-(4-fluorophenyl)-8-oxo-5,6,7,8-tetrahydro-9H-pyrimido[4,5-d][1,3]diazepin-9-yl)phenyl)acrylamide] | 7.64 | 75 nM | 110 nM | 3 nM | 91 nM
7 | C=CC(=O)Nc1cccc(N2C(=O)N(Cc3ccccc3)CCc3cnc(Nc4ccc(F)cc4OC)nc32)c1 [Compound 21, N-(3-(7-benzyl-2-((4-fluoro-2-methoxyphenyl)amino)-8-oxo-5,6,7,8-tetrahydro-9H-pyrimido[4,5-d][1,3]diazepin-9-yl)phenyl)acrylamide] | 7.40 | 97 nM | 103 nM | 102 nM | 44 nM
8 | C=CC(=O)Nc1cccc(N2C(=O)N(Cc3ccccc3)CCc3cnc(Nc4ccc(N5CCN(C)CC5)c(C)c4)nc32)c1 [Compound 22, N-(3-(7-benzyl-2-((3-methyl-4-(4-methylpiperazin-1-yl)phenyl)amino)-8-oxo-5,6,7,8-tetrahydro-9H-pyrimido[4,5-d][1,3]diazepin-9-yl)phenyl)acrylamide] | 7.60 | 33 nM | 31 nM | 41 nM | 9 nM
